Earlier results, collected in US5783700A, “Quinolic acid derivatives” (priority 1997, dated 1998).

Columns and labels:
[1] = tested on: recognition site presumed to be located within the ion channel of the receptor complex; conditions: cited from earlier work
[2] = tested on: NMDA receptor glycine binding; conditions: cited from earlier work
[^3 H]-MK 801 binding = cited from earlier work
[3] = target: glycine binding site on the NMDA receptor; conditions: [^3 H]-labeled ligand; cited from earlier work

| SMILES | effect on binding of phencyclidine-like compounds [1] | inhibition of glycine binding [2] | effect at 1 uM on [^3 H]-MK 801 binding ([^3 H]-MK 801 binding; 1 uM) | IC50 ([^3 H]-MK 801 binding; [^3 H]-MK 801, depending on brain region, read-out: IC50 (inhibition concentration)) | Kd [3] |
| --- | --- | --- | --- | --- | --- |
| O=C(O)c1cc(O)c2ccc(Cl)cc2n1 [7-chlorokynurenic acid] | decrease binding | competitive inhibitor of glycine binding | little effect | 30 to 40 µM |  |
| O=C(O)c1cc(O)c2c(Cl)cc(Cl)cc2n1 [[^3 H]-5,7-dichlorokynurenic acid] |  |  |  |  | 0.029 µM |
